Measurements reported in ChEMBL document CHEMBL3352174, “Identification of a New RXRα Antagonist Targeting the Coregulator-Binding Site” (ACS Med Chem Lett, 2014).
Active and inactive are the calls of the source.

What was measured:
[1] = test system: T1, Retinoic acid receptor RXR-alpha (Homo sapiens), P19793 [C432W]; assay: Antagonist activity against RXRalpha C432W/F313A mutant (unknown origin) expressed in human HEK293T cells assessed as inhibition of constitutive receptor transactivation at 1 to 10 uM after 18 hrs by luciferase reporter gene based mammalian one-hybrid assay; conditions: HEK-293T
T1 sequence (whole entry): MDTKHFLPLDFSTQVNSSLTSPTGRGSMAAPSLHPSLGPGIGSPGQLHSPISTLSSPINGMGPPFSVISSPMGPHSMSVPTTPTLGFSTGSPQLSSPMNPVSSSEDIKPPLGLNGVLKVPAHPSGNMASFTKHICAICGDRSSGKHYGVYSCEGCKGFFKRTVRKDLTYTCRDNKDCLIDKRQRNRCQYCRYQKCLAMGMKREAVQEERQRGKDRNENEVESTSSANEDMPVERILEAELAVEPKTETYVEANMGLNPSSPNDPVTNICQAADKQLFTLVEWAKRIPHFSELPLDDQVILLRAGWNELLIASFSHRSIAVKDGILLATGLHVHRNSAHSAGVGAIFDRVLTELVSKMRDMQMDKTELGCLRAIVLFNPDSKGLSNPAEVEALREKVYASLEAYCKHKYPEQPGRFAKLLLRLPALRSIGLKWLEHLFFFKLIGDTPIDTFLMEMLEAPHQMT

[2] = target: T2, Oxysterols receptor LXR-alpha (Homo sapiens) (UniProt Q13133); assay: Antagonist activity against LXRalpha ligand binding domain (unknown origin) expressed in human MCF7 cells assessed as inhibition of T09-induced receptor transactivation at 10 uM after 18 hrs by luciferase reporter gene based mammalian one-hybrid assay; type: cell-based
T2 sequence (whole entry): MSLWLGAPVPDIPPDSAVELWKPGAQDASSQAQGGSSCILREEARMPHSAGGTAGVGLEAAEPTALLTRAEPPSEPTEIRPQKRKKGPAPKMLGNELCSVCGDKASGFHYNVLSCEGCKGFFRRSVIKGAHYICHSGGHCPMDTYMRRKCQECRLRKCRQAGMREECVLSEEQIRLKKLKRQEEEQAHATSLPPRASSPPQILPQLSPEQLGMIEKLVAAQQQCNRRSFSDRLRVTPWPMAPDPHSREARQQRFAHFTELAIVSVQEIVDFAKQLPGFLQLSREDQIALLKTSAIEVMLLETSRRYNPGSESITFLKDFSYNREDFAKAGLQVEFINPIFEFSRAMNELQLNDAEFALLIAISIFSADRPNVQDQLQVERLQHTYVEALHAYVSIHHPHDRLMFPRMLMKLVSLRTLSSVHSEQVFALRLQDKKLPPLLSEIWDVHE

[3] = target: T3, Retinoic acid receptor RXR-gamma (Homo sapiens) (UniProt P48443); assay: Antagonist activity against RXRgamma ligand binding domain (unknown origin) expressed in human HEK293T cells assessed as inhibition of 9-cis-RA-induced receptor transactivation at 2 and 10 uM after 18 hrs by luciferase reporter gene based mammalian one-hybrid assay; type: cell-based; conditions: HEK-293T
T3 sequence (whole entry): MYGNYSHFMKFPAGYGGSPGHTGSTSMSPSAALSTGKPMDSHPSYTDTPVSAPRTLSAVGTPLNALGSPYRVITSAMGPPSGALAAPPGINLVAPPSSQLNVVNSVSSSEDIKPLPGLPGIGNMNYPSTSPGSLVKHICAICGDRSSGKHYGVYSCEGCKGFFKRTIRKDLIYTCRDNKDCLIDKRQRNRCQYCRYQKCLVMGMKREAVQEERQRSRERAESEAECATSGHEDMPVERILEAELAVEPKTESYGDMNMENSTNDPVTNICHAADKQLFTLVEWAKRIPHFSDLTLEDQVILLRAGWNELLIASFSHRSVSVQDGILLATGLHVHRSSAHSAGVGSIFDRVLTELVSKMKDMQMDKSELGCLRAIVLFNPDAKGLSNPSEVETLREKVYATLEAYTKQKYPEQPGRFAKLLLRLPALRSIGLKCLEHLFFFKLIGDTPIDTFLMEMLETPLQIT

[4] = target: T4, Retinoic acid receptor RXR-beta (Homo sapiens) (UniProt P28702); assay: Antagonist activity against RXRbeta ligand binding domain (unknown origin) expressed in human HEK293T cells assessed as inhibition of 9-cis-RA-induced receptor transactivation at 2 and 10 uM after 18 hrs by luciferase reporter gene based mammalian one-hybrid assay; type: cell-based; conditions: HEK-293T
T4 sequence (whole entry): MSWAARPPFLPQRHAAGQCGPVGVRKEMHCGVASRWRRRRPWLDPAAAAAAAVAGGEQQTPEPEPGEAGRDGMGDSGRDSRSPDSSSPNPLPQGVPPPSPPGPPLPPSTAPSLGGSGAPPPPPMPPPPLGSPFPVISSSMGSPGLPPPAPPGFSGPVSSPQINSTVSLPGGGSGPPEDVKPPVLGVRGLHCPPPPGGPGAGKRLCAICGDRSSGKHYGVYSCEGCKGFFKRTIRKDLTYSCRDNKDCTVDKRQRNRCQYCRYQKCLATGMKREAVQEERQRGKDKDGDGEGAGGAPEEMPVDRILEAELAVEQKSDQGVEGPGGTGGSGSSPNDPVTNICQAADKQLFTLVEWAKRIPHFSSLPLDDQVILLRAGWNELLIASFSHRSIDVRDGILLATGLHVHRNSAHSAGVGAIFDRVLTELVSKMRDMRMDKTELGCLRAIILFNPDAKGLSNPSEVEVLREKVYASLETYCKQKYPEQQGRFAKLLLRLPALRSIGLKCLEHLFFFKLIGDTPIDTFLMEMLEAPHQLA

Measured: inhibition

Cc1cc(=O)oc2c(/C=N/NC(=O)CSc3nc4ccccc4s3)c(O)ccc12
active: [1] Dose-dependent effect | [2] | [3] | [4]
